In BindingDB's records for patent US20230365627 (Bristol Myers Squibb, 2023):
*1 amine or outer side, *2 acyl side, *3 side chain or, on linkers, in order; H or OH if unused. Where a SMILES comes first, the peptide text is derived from it. Bridges are numbered along the chain shown (N, C = ends). [ ]: non-standard residue; d: D form. X14 = O=C([C@H](CN1Cc2cccc(c2)B2OCC(O)[C@@H](O2)[C@@H](O)[C@H](O)[C@H](O)C1)N[*:1])[*:2]; X13 = O=C([C@H](CCNC[C@@H](O)[C@@H](O)[C@H](O)[C@H](O)C(O)CO)N[*:1])[*:2]; Trp(1-CH2COOH) = N[C@@H](Cc1cn(CC(=O)O)c2ccccc12)C(=O)O; Hyp = O=C(O)[C@@H]1C[C@@H](O)CN1; NMeNle = CCCC[C@H](NC)C(=O)O; NMeA = CN[C@@H](C)C(=O)O

What follows are compounds tested against Programmed cell death 1 ligand/protein 1 (Homo sapiens, UniProt Q9NZQ7) (assay: Binding of PD-1 to PD-L1 Using Homogenous Time-Resolved Fluorescence (HTRF) Binding Assay).
Method: Homogenous Time-Resolved Fluorescence (HTRF) Binding Assay. The interaction of PD-1 and PD-L1 can be assessed using soluble, purified preparations of the extracellular domains of the two proteins. The PD-1 and PD-L1 protein extracellular domains were expressed as fusion proteins with detection tags, for PD-1, the tag was the Fc portion of Immunoglobulin (PD-1-Ig) and for PD-L1 it was the 6 histidine motif (PD-L1-His). All binding studies were performed in an HTRF assay buffer consisting of dPBS supplemented with 0.1% […] bovine serum albumin and 0.05% (v/v) Tween-20. For the h/PD-L1-His binding assay, inhibitors were pre-incubated with PD-L1-His (10 nM final) for 15 m in 4 μl of assay buffer, followed by addition of PD-1-Ig (20 nM final) in 1 μl of assay buffer and further incubation for 15 m. HTRF detection was achieved using europium cryptate-labeled anti-Ig (1 nM final) and allophycocyanin (APC) labeled anti-His (20 nM final). Antibodies were diluted in HTRF detection buffer and 5 μl was dispensed on top of the binding reaction. The reaction mixture was allowed to equilibrate for 30 minutes and the resulting signal (665 nm/620 nm ratio) was obtained using an EnVision fluorometer. Additional binding assays were established between the human proteins PD-1-Ig/PD-L2-His (20 & 5 nM, respectively) and CD80-His/PD-L1-Ig (100 & 10 nM, respectively).

Chain of Programmed cell death 1 ligand/protein 1 (Q9NZQ7 whole entry, the tested form may be a part): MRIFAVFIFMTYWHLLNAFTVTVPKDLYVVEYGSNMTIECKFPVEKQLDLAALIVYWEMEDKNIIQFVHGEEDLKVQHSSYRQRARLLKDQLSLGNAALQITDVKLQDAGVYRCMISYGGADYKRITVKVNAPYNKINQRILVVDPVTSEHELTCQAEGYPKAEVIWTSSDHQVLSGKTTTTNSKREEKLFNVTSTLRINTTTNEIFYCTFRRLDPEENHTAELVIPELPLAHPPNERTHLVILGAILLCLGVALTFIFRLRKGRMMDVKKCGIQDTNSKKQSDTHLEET
Chain of Programmed cell death 1 ligand/protein 1 (Q15116 whole entry, further chain, the tested form may be a part): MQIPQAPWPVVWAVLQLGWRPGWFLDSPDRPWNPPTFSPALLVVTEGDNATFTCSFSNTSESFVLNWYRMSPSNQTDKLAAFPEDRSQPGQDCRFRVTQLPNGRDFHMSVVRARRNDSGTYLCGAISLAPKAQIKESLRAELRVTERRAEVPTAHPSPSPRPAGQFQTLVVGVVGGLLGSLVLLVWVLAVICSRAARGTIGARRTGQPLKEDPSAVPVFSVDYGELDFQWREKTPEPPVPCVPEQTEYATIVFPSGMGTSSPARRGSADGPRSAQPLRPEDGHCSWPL

Compared with `CCCC[C@H]1C(=O)N(C)[C@@H](CCCC)C(=O)N[C@@H](CC(C)C)C(=O)N[C@H](C(=O)NCC(N)=O)CSCC(=O)N[C@@H](Cc2ccc(O)cc2)C(=O)N(C)[C@@H](C)C(=O)N[C@@H](CC(N)=O)C(=O)N2CCC[C@H]2C(=O)N[C@H]2CNC[C@@H](O)[C@@H](O)[C@H](O)[C@@H]3OB(OCC3O)c3ccccc3CNCC[C@H](NC(=O)[C@H](Cc3c[nH]c4ccccc34)NC(=O)[C@@H]3C[C@@H](O)CN3C(=O)[C@H](CC(C)C)NC2=O)C(=O)N[C@@H](Cc2cn(CC(=O)O)c3ccccc23)C(=O)N1C` (some centres undefined) [US20230365627, Compound 1035], `CCCC[C@H]1C(=O)N(C)[C@@H](CCCC)C(=O)N[C@@H](CC(C)C)C(=O)N[C@H](C(=O)NCC(N)=O)CSCC(=O)N[C@@H](Cc2ccc(O)cc2)C(=O)N(C)[C@@H](C)C(=O)N[C@@H](CC(N)=O)C(=O)N2CCC[C@H]2C(=O)N[C@H]2CNC[C@@H](O)[C@@H](O)[C@H](O)[C@@H]3OB(OCC3O)c3cccc(c3)CNCC[C@H](NC(=O)[C@H](Cc3c[nH]c4ccccc34)NC(=O)[C@@H]3C[C@@H](O)CN3C(=O)[C@H](CC(C)C)NC2=O)C(=O)N[C@@H](Cc2cn(CC(=O)O)c3ccccc23)C(=O)N1C` (some centres undefined) [US20230365627, Compound 1036] is 2.4-fold higher in IC50: 4 nM for the first, 9.5 nM for the second.

Compared with `CCCC[C@H]1C(=O)N(C)[C@@H](CCCC)C(=O)N[C@@H](CC(C)C)C(=O)N[C@H](C(=O)NCC(N)=O)CSCC(=O)N[C@@H](Cc2ccc(O)cc2)C(=O)N(C)[C@@H](C)C(=O)N[C@@H](CC(N)=O)C(=O)N2CCC[C@H]2C(=O)N[C@H]2CNC[C@@H](O)[C@@H](O)[C@H](O)[C@@H]3OB(OCC3O)c3ccc(cc3)CNCC[C@H](NC(=O)[C@H](Cc3c[nH]c4ccccc34)NC(=O)[C@@H]3C[C@@H](O)CN3C(=O)[C@H](CC(C)C)NC2=O)C(=O)N[C@@H](Cc2cn(CC(=O)O)c3ccccc23)C(=O)N1C` (some centres undefined) [US20230365627, Compound 1037], `CCCC[C@H]1C(=O)N(C)[C@@H](CCCC)C(=O)N[C@@H](CC(C)C)C(=O)N[C@H](C(=O)NCC(N)=O)CSCC(=O)N[C@@H](Cc2ccc(O)cc2)C(=O)N(C)[C@@H](C)C(=O)N[C@@H](CC(N)=O)C(=O)N2CCC[C@H]2C(=O)N[C@@H](CN2Cc3cccc(c3)B3OCC(O)[C@@H](O3)[C@@H](O)[C@H](O)[C@H](O)C2)C(=O)N[C@@H](CC(C)C)C(=O)N2C[C@H](O)C[C@H]2C(=O)N[C@@H](Cc2c[nH]c3ccccc23)C(=O)N[C@@H](CCNC[C@@H](O)[C@@H](O)[C@H](O)[C@H](O)C(O)CO)C(=O)N[C@@H](Cc2cn(CC(=O)O)c3ccccc23)C(=O)N1C` (some centres undefined) [US20230365627, Compound 1040] ({CH2CO}-Y[NMeA]NP[X14]L[Hyp]W[X13][Trp(1-CH2COOH)][NMeNle][NMeNle]LCG-NH2; thioether N-14) is 1.7-fold lower in IC50: 9.5 nM for the first, 5.6 nM for the second.
